From patent US4835162A (priority 1987, dated 1989)
Several values for one entry are separate records, joined by “and”; a condition that tells them apart may be missing. Equal entries are not always repeated. Entries after “also recorded” stand apart in the source; their conditions may differ. Where two headings read alike, the source gives them in different places.

Assays:
[1] = tested on: rats; conditions: rat, in vivo
[2] = tested on: rats; conditions: rat, in vivo; remark: listed apart in the source
[3] = tested on: rats; conditions: rat, in vivo; remark: listed apart in the source
[4] = tested on: rats; conditions: rat, in vivo; remark: listed apart in the source
[5] = tested on: rats; conditions: rat, in vivo; remark: listed apart in the source
[6] = tested on: nicotinic receptors (rat brain membranes)
[7] = tested on: nicotinic receptors (rat brain membranes); format: binding
[8] = tested on: rat liver microsomal system; conditions: cited from earlier work
[9] = molecular target: nicotinic receptors (rat brain membranes); format: binding; conditions: for IC50: read-out: 3H-Nicotine Binding IC50
[10] = molecular target: nicotinic receptors (rat brain membranes); format: binding; conditions: pH 7; read-out: [3H]-MCC IC50
[11] = molecular target: nicotinic receptors (rat brain membranes); conditions: read-out: 3H-MCC Binding IC50
[12] = tested on: rats or mice; conditions: in vivo; cited from earlier work
[13] = tested on: rats; assay: animal or person; conditions: Rattus norvegicus, ip, 7 min, read-out: % Antagonism (seizures)
[14] = tested on: rats; parameters: species or system Sprague-Dawley male rats; Blockade of (nicotine-induced prostration) EC50: unit not given here; conditions: rat, in vivo
[15] = tested on: rats; assay: animal or person; conditions: Rattus norvegicus, iv, read-out: Antagonistic dose needed to completely block elevation in systolic blood pressure
[16] = tested on: rat brain; conditions: cited from earlier work
[17] = in vivo; cited from earlier work

SMILES: CN1CCCC1c1cccnc1 (single isomer, unassigned; (-)) [(-)-nicotine]
- dose producing effect: prostration, in words [1]: prostration of all four limbs
- times more effective than (+)-enantiomer of nicotine (prostration) [1]: 20 times
- times more potent than N'-ethyl analogue (prostration) [1]: 10 times
- times more potent than N'-propyl analogue (prostration) [1]: 40 times
- times more potent than nicotonium analogue (prostration) [1]: 50 times
- volume of nicotine solution required to produce prostration [1]: 1-2 μl of a 10^-3 M solution
- increase in systolic blood pressure by nicotine ([2]; iv): 25%
- Mortality ([3]; ip, 3 mg/kg): 8/10
- Prostration EC50 [4]: 2
- agonist or inactive on prostration, in words [4]: agonists
- duration of prostration [4]: 2 to 4 min
- onset of prostration response [4]: 1 to 3 s
- respiratory effect, in words [4]: deep diaphragmatic breathing and a decreased respiratory rate
- signs after nicotine, in words [5]: prostration followed by tremors, fasciculations, cyanosis and labored breathing, and myoclonic seizures
- Seizures ([5]; ip, 1.5 mg/kg): 10/10

SMILES: CN1CCCC1c1cccnc1 (single isomer, unassigned; (-)) [[^3 H]-nicotine, (-)-[^3 H]-nicotine]
- Bmax of higher affinity site, [3H]-nicotine [6]: 5e-15 mol/mg
- Bmax of lower affinity site, [3H]-nicotine [6]: 1e-14 mol/mg and 2e-14 mol/mg
- displaceability of [3H]-nicotine binding by muscarinic antagonists [7]: not displaceable by muscarinic cholinergic antagonists

SMILES: CNC(=O)OCC[N+](C)(C)C [MCC, Methylcarbamylcholine]
- metabolism [8]: metabolized by a rat liver microsomal system
- increase in psychotropic potency after quaternization of DMAE methyl carbamate [1]: over 10 fold
- potency relative to (-)-nicotine (prostration) [1]: 1/5
- Prostration EC50 [4]: 10
- duration of prostration [4]: over 20 min

SMILES: C[N+]1(C)CCCC1c1cccnc1 (stereo not drawn) [N'--methyl nicotonium]
- decrease in psychotropic potency with quaternization of nicotine [1]: 50 fold
- IC50 ([9]; pH 7.5): 7 µM
- IC50 [10]: 4 µM
- Prostration EC50 [4]: 100
- IC50 ([11]; pH 7.5): 4 µM
- IC50 ([7]; pH 7, read-out: [3H]-nicotine IC50): 7 µM
- potency in producing seizures and mortality, in words [12]: more potent than nicotine in producing seizures and mortality

SMILES: C[N+](C)(C)CCOC(=O)c1ccccc1 [TMAE benzoate, benzoylcholine]
- responders at 25 mg/kg [13]: 78%
- Antagonistic dose needed to completely block elevation in systolic blood pressure [2]: 1.5 ± 0.3 mg/kg
- % Antagonism (protection against nicotine mortality) [3]: 63%
- Mortality [3]: 3/10
- Blockade of (nicotine-induced prostration) EC50 [14]: 10
- times as effective as the DMAE ester [14]: 5 times
- ED100 [15]: 1.5 mg/kg
- Seizures [5]: 1/8
- blockade of seizure activity [5]: 78%

SMILES: C[N+](C)(C)CCOC(=O)Nc1ccccc1 [TMAE phenylcarbamate]
- IC50 [9]: 6 µM
- responders at 25 mg/kg [13]: 89%
- % Antagonism (protection against nicotine mortality) [3]: 50%
- Mortality [3]: 4/10
- Blockade of (nicotine-induced prostration) EC50 [14]: 200
- blockade of nicotine-induced prostration / antagonism, in words [14]: next in effectiveness and of comparable activity
- ED100 [15]: 5 ± 1 mg/kg
- Seizures [5]: 1/9
- protection against seizures, in words [5]: almost complete protection
- IC50 [11]: 0.8 µM

SMILES: CC(=O)OCC[N+](C)(C)C [[^3 H]-acetylcholine]
- displaceability of [3H]-acetylcholine binding by muscarinic antagonists [16]: displaceable by low concentrations of muscarinic antagonists

SMILES: CN1[C@@H](CC(=O)c2ccccc2)CCC[C@H]1C[C@H](O)c1ccccc1 [α-lobeline, reference compound]
- binding affinity for nicotine receptor, in words [9]: even greater affinity than (-)-nicotine for the receptor; also recorded: very high affinity for brain nicotine receptors
- IC50 [9]: 0.005 µM
- responders at 5 mg/kg [13]: 0%
- Antagonistic dose needed to completely block elevation in systolic blood pressure [2]: 0.2 ± 0.05 mg/kg
- % Antagonism (reduction of nicotine mortality) [3]: 75%
- Mortality [3]: 2/10
- pharmacologic effects, in words [17]: suppress the desire for tobacco; also recorded: hypertensive action resulting from the stimulation of the carotid body; also recorded: broncio-construction; also recorded: brochoarrythmia
- Blockade of (nicotine-induced prostration) EC50 [14]: 10
- blockade of nicotine-induced prostration / antagonism, in words [14]: most effective antagonist
- ED100 [15]: 0.2 mg/kg
- Seizures [5]: 1/8
- protection against seizures, in words [5]: complete protection against seizures
- IC50 [11]: 0.0007 µM
